# Reference: patent US8802715B2, “Crystal forms of saxagliptin and processes for preparing same” (AstraZeneca AB, priority 2007, dated 2014)
# What was measured:
# [1] = Solid form stability of crystals stored at ambient conditions; type: physicochemical; details: product likely form H2-1
# Procedure: 100 mg Saxagliptin mono HCl salt form H2-1 (dihydrate) (prepared employing a procedure similar to that described in Example 5) were added to 2 ml of dry ethanol (dried over molecular sieves). The resulting mixture was heated at 45° C. until all form H^2-1 compound was dissolved, at which time heating was discontinued. Crystallization was initiated when the temperature was cooled to 25° C.±2° C. (close to room temperature). Crystals of saxagliptin HCl salt Pattern P-5 were recovered, which crystals were maintained as a slurry in a sealed container at 25° C.±2° C.
# [2] = Weight gain with relative humidity (hygroscopicity); type: physicochemical
conversion of crystal form on storage [1],hygroscopicity ([2]; from weight gain in the range 25-75% RH at 25° C.),weight gain ([2]; range 25-75% RH at 25° C.) [%],Compound
underwent significant conversion,,,Cl.N#C[C@@H]1C[C@@H]2C[C@@H]2N1C(=O)[C@@H](N)C12CC3CC(CC(O)(C3)C1)C2 [saxagliptin HCl salt Pattern P-5]
,non-hygroscopic,0.1,N#C[C@@H]1C[C@@H]2C[C@@H]2N1C(=O)[C@@H](N)C12CC3CC(CC(O)(C3)C1)C2.O [free base monohydrate (form H−1)]
